Experimental data from ChEMBL document CHEMBL1159146, “Structure-activity studies of N-cyano-3-pyridinecarboxamidines and their amide and thioamide congeners” (1994).

Experiments:
Type in all cases: functional
[1] = species: Cavia porcellus; experiment: Compound was tested for chronotropic activity in right atria of guinea pig
[2] = species: Cavia porcellus; experiment: Compound was tested for negative inotropic activity in left atria of guinea pig
[3] = species: Rattus norvegicus; experiment: Compound was tested for […] vasorelaxing activity in aorta of rat

## N#CN/C(=N\CCO[N+](=O)[O-])c1cccnc1
[1]
  pD2: 4.42
[2]
  pD2: 4.84
[3]
  pD2: 6.95

## S=C(NCCc1ccccc1)c1cccnc1
[1]
  pD2: 4.1
[2]
  pD2: 4.39
[3]
  pD2: 4.95

## N#CN/C(=N\CCc1ccccc1)c1cccnc1
[1]
  pD2: 3.85
[2]
  pD2: 4.6
[3]
  pD2: 6.4

## N#CN/C(=N\CCc1ccccc1Cl)c1cccnc1
[1]
  pD2: 5.32
[2]
  pD2: 5.51
[3]
  pD2: 7.57

## S=C(NCCc1ccccc1Cl)c1cccnc1
[1]
  pD2: 4.54
[2]
  pD2: <4.5
[3]
  pD2: 5.64

## O=C(NCCc1ccccc1Cl)c1cccnc1
[1]
  pD2: <3.5
[2]
  pD2: 3.7
[3]
  pD2: 4.83

## O=C(NCCc1ccccc1)c1cccnc1
[1]
  pD2: <3.5
[2]
  pD2: <3.5
[3]
  pD2: 4.09

## O=C(NCCO[N+](=O)[O-])c1cccnc1 [NICORANDIL]
[1]
  pD2: <3.5
[2]
  pD2: <3.5
[3]
  pD2: 5.62
